Reference: patent US5525626A (priority 1989, dated 1996)
Read-outs that look alike come from different tables or passages of the source.

Tests used:
Assay type in all cases: cell-based
[1] = test system: GV-1 prostate carcinoma cells; experiment: 3H-thymidine assay; details: for activity at 1 µM / activity at 2 µM / activity at 4 µM / activity at 8 µM / activity at 16 µM / activity at 25 µM / activity at 50 µM / activity at 100 µM / activity at 250 µM / activity at 500 µM: read-out: 3H-thymidine tracer (%) of control; for IC50: read-out: active substance concentration at which 3H-thymidine insertion was 50% inhibited
[2] = test system: Tp 242 MG glioblastoma cells; experiment: 3H-thymidine assay; details: Homo sapiens; for activity at 1 µM / activity at 2 µM / activity at 4 µM / activity at 8 µM / activity at 16 µM / activity at 25 µM / activity at 50 µM / activity at 100 µM / activity at 250 µM / activity at 500 µM: read-out: 3H-thymidine insertion (%) of control; for IC50: read-out: active substance concentration at which 3H-thymidine insertion was 50% inhibited
A-375 melanoma cells = experiment: 3H-thymidine assay; details: Homo sapiens
[3] = test system: brain-tumor cells (glioblastoma cells); experiment: growth inhibition of brain-tumor cells; details: Tables 1 to 3
CAKI-2 cells = experiment: 3H-thymidine assay; details: Homo sapiens
Method: The cell lines were cultivated as indicated in Example 1.
The antiproliferative effect of the 1,2-benzopyrone derivatives according to the invention on the tumor cell lines in each case was shown with the help of the ^3 H-thymidine insertion and with reference to growth curves.
In a 24-well-plate, in each case 10^4 cells of the line to be investigated were inoculated per well. Approximately 48 hours later the cells were half-confluent; the medium was then changed and replaced by a medium containing the active substance in question (cf Table 3). […] Subsequently the cultures were washed twice with ice-cold PBS and the high-molecular-weight ^3 H-radioactivity was precipitated with 5% trichloroacetic acid for one hour at 4° C. After the washing of the cells in PBS the ^3 H-radioactivity was solubilized with 0.3M NaOH and measured in the counter. The growth-inhibition was determined by comparing the thymidine insertion of the cells treated with active substance with untreated cells.
The active substance concentration in each case was so chosen that ^3 H-thymidine insertion was 50% inhibited. The active substance concentrations used under this aspect for the active substances and cell lines in each case are given in table 4 below in μM/ml, […]

[4] = A-375, 1 μM/ml, read-out: 3H-thymidine tracer (%) of control
[5] = A-375, 2 μM/ml, read-out: 3H-thymidine tracer (%) of control
[6] = A-375, 4 μM/ml, read-out: 3H-thymidine tracer (%) of control
[7] = A-375, 8 μM/ml, read-out: 3H-thymidine tracer (%) of control
[8] = A-375, 25 μM/ml, read-out: 3H-thymidine tracer (%) of control
[9] = A-375, 50 μM/ml, read-out: 3H-thymidine tracer (%) of control
[10] = A-375, 100 μM/ml, read-out: 3H-thymidine tracer (%) of control
[11] = A-375, 250 μM/ml, read-out: 3H-thymidine tracer (%) of control
[12] = A-375, 500 μM/ml, read-out: 3H-thymidine tracer (%) of control
[13] = A-375, Table 4, *: maximum usable dosage, no 50% inhibition, read-out: active substance concentration at which 3H-thymidine insertion was 50% inhibited
[14] = CAKI-2, 1 μM/ml, read-out: 3H-thymidine tracer (%) of control
[15] = CAKI-2, 2 μM/ml, read-out: 3H-thymidine tracer (%) of control
[16] = CAKI-2, 4 μM/ml, read-out: 3H-thymidine tracer (%) of control
[17] = CAKI-2, 8 μM/ml, read-out: 3H-thymidine tracer (%) of control
[18] = CAKI-2, 16 μM/ml, read-out: 3H-thymidine tracer (%) of control
[19] = CAKI-2, 25 μM/ml, read-out: 3H-thymidine tracer (%) of control
[20] = CAKI-2, 50 μM/ml, read-out: 3H-thymidine tracer (%) of control
[21] = CAKI-2, 100 μM/ml, read-out: 3H-thymidine tracer (%) of control
[22] = CAKI-2, 150 μM/ml, read-out: 3H-thymidine tracer (%) of control
[23] = CAKI-2, 500 μM/ml, read-out: 3H-thymidine tracer (%) of control
[24] = CAKI-2, Table 4, *: maximum usable dosage, no 50% inhibition, read-out: active substance concentration at which 3H-thymidine insertion was 50% inhibited
[25] = A-375, read-out: 3H-thymidine tracer (%) of control
[26] = CAKI-2, read-out: 3H-thymidine tracer (%) of control

O=c1ccc2cc(O)c(O)cc2o1 [Esculetin, 6,7-hydroxy-1,2-benzopyrone] showed an activity at 1 µM ([1]; 1 μM/ml) of 97%, an activity at 2 µM ([1]; 2 μM/ml) of 93% and an activity at 4 µM ([1]; 4 μM/ml) of 88%. The activity at 8 µM ([1]; 8 μM/ml) was 84%, the activity at 16 µM ([1]; 16 μM/ml) was 78% and the activity at 25 µM ([1]; 25 μM/ml) was 75%. The activity at 50 µM ([1]; 50 μM/ml) was 63%, the activity at 100 µM ([1]; 100 μM/ml) was 60% and the activity at 250 µM ([1]; 250 μM/ml) was 58%. For the same compound, the activity at 500 µM ([1]; 500 μM/ml) was 50%, the IC50 ([1]; Table 4) was 500 µM and the activity at 1 µM ([2]; 1 μM/ml) was 96%. It also gave an activity at 2 µM ([2]; 2 μM/ml) of 96%, an activity at 4 µM ([2]; 4 μM/ml) of 89% and an activity at 8 µM ([2]; 8 μM/ml) of 87%. It also gave an activity at 16 µM ([2]; 16 μM/ml) of 75%, an activity at 25 µM ([2]; 25 μM/ml) of 72% and an activity at 50 µM ([2]; 50 μM/ml) of 60%. The activity at 100 µM ([2]; 100 μM/ml) was 44%, the activity at 250 µM ([2]; 250 μM/ml) was 32% and the activity at 500 µM ([2]; 500 μM/ml) was 21%. For the same compound, the IC50 ([2]; Table 4) was 75 µM, the activity at 1 µM (A-375 melanoma cells; [4]) was 98% and the activity at 2 µM (A-375 melanoma cells; [5]) was 91%. It also gave an activity at 4 µM (A-375 melanoma cells; [6]) of 89%, an activity at 8 µM (A-375 melanoma cells; [7]) of 84% and an activity at 16 µM (A-375 melanoma cells; A-375, 16 μM/ml, read-out: 3H-thymidine tracer (%) of control) of 75%. The activity at 25 µM (A-375 melanoma cells; [8]) was 70%, the activity at 50 µM (A-375 melanoma cells; [9]) was 65% and the activity at 100 µM (A-375 melanoma cells; [10]) was 63%. It also gave an activity at 250 µM (A-375 melanoma cells; [11]) of 59%, an activity at 500 µM (A-375 melanoma cells; [12]) of 55% and an IC50 (A-375 melanoma cells; [13]) greater than 500 µM. For the same compound, the “growth-inhibiting effect on brain-tumor cells” value [3] was “strong growth-inhibiting effect on brain-tumor cells”, the activity at 1 µM (CAKI-2 cells; [14]) was 98% and the activity at 2 µM (CAKI-2 cells; [15]) was 94%. For the same compound, the activity at 4 µM (CAKI-2 cells; [16]) was 90%, the activity at 8 µM (CAKI-2 cells; [17]) was 87% and the activity at 16 µM (CAKI-2 cells; [18]) was 82%. For the same compound, the activity at 25 µM (CAKI-2 cells; [19]) was 69%, the activity at 50 µM (CAKI-2 cells; [20]) was 65% and the activity at 100 µM (CAKI-2 cells; [21]) was 54%. It also gave an activity at 150 µM (CAKI-2 cells; [22]) of 53%, an activity at 500 µM (CAKI-2 cells; [23]) of 50% and an IC50 (CAKI-2 cells; [24]) of 500 µM.

In the case of O=c1ccc2cc(O[C@@H]3O[C@H](CO)[C@@H](O)[C@H](O)[C@H]3O)c(O)cc2o1 [Esculin, 6-beta-D-glucopyranosyloxy-7-hydroxy-1,2-benzopyrone], the activity at 1 µM [1] is reported as 97%, the activity at 2 µM [1] is reported as 95% and the activity at 4 µM [1] is reported as 85%. It also gave an activity at 8 µM [1] of 84%, an activity at 16 µM [1] of 79% and an activity at 25 µM [1] of 76%. It also gave an activity at 50 µM [1] of 68%, an activity at 100 µM [1] of 60% and an activity at 250 µM [1] of 51%. For the same compound, the activity at 500 µM [1] was 43%, the IC50 [1] was 250 µM and the activity at 1 µM [2] was 100%. It also gave an activity at 2 µM [2] of 98%, an activity at 4 µM [2] of 95% and an activity at 8 µM [2] of 81%. It also gave an activity at 16 µM [2] of 73%, an activity at 25 µM [2] of 68% and an activity at 50 µM [2] of 65%. It also gave an activity at 100 µM [2] of 61%, an activity at 250 µM [2] of 53% and an activity at 500 µM [2] of 49%. For the same compound, the IC50 [2] was 500 µM, the activity at 1 µM (A-375 melanoma cells; [25]) was 100% and the activity at 2 µM (A-375 melanoma cells; [25]) was 96%. The activity at 4 µM (A-375 melanoma cells; [25]) was 93%, the activity at 8 µM (A-375 melanoma cells; [25]) was 87% and the activity at 16 µM (A-375 melanoma cells; [25]) was 82%. The activity at 25 µM (A-375 melanoma cells; [25]) was 78%, the activity at 50 µM (A-375 melanoma cells; [25]) was 71% and the activity at 100 µM (A-375 melanoma cells; [25]) was 64%. For the same compound, the activity at 250 µM (A-375 melanoma cells; [25]) was 60%, the activity at 500 µM (A-375 melanoma cells; [25]) was 57% and the IC50 (A-375 melanoma cells; A-375, read-out: active substance concentration at which 3H-thymidine insertion was 50% inhibited) was greater than 500 µM. The activity at 1 µM (CAKI-2 cells; [26]) was 99%, the activity at 2 µM (CAKI-2 cells; [26]) was 96% and the activity at 4 µM (CAKI-2 cells; [26]) was 90%. The activity at 8 µM (CAKI-2 cells; [26]) was 84%, the activity at 16 µM (CAKI-2 cells; [26]) was 73% and the activity at 25 µM (CAKI-2 cells; [26]) was 72%. For the same compound, the activity at 50 µM (CAKI-2 cells; [26]) was 66%, the activity at 100 µM (CAKI-2 cells; [26]) was 50% and the activity at 150 µM (CAKI-2 cells; [26]) was 56%. For the same compound, the activity at 500 µM (CAKI-2 cells; [26]) was 52% and the IC50 (CAKI-2 cells; CAKI-2, read-out: active substance concentration at which 3H-thymidine insertion was 50% inhibited) was greater than 500 µM.

COc1cc2ccc(=O)oc2cc1O [Scopoletin, 6-methoxy-7-hydroxy-1,2-benzopyrone] showed an activity at 1 µM ([1]; 1 μM/ml) of 100%, an activity at 2 µM ([1]; 2 μM/ml) of 98% and an activity at 4 µM ([1]; 4 μM/ml) of 91%. For the same compound, the activity at 8 µM ([1]; 8 μM/ml) was 88%, the activity at 16 µM ([1]; 16 μM/ml) was 82% and the activity at 25 µM ([1]; 25 μM/ml) was 78%. For the same compound, the activity at 50 µM ([1]; 50 μM/ml) was 71%, the activity at 100 µM ([1]; 100 μM/ml) was 63% and the activity at 250 µM ([1]; 250 μM/ml) was 61%. The activity at 500 µM ([1]; 500 μM/ml) was 51%, the IC50 ([1]; Table 4) was 500 µM and the activity at 1 µM ([2]; 1 μM/ml) was 99%. The activity at 2 µM ([2]; 2 μM/ml) was 93%, the activity at 4 µM ([2]; 4 μM/ml) was 85% and the activity at 8 µM ([2]; 8 μM/ml) was 87%. For the same compound, the activity at 16 µM ([2]; 16 μM/ml) was 84%, the activity at 25 µM ([2]; 25 μM/ml) was 79% and the activity at 50 µM ([2]; 50 μM/ml) was 74%. The activity at 100 µM ([2]; 100 μM/ml) was 61%, the activity at 250 µM ([2]; 250 μM/ml) was 52% and the activity at 500 µM ([2]; 500 μM/ml) was 48%. The IC50 ([2]; Table 4) was 500 µM, the activity at 1 µM (A-375 melanoma cells; [4]) was 99% and the activity at 2 µM (A-375 melanoma cells; [5]) was 96%. It also gave an activity at 4 µM (A-375 melanoma cells; [6]) of 90%, an activity at 8 µM (A-375 melanoma cells; [7]) of 89% and an activity at 25 µM (A-375 melanoma cells; [8]) of 87%. The activity at 50 µM (A-375 melanoma cells; [9]) was 78%, the activity at 100 µM (A-375 melanoma cells; [10]) was 75% and the activity at 250 µM (A-375 melanoma cells; [11]) was 75%. For the same compound, the activity at 500 µM (A-375 melanoma cells; [12]) was 70%, the IC50 (A-375 melanoma cells; [13]) was greater than 500 µM and the activity at 1 µM (CAKI-2 cells; [14]) was 99%. It also gave an activity at 2 µM (CAKI-2 cells; [15]) of 96%, an activity at 4 µM (CAKI-2 cells; [16]) of 84% and an activity at 8 µM (CAKI-2 cells; [17]) of 80%. For the same compound, the activity at 16 µM (CAKI-2 cells; [18]) was 76%, the activity at 25 µM (CAKI-2 cells; [19]) was 71% and the activity at 50 µM (CAKI-2 cells; [20]) was 66%. The activity at 100 µM (CAKI-2 cells; [21]) was 61%, the activity at 150 µM (CAKI-2 cells; [22]) was 59% and the activity at 500 µM (CAKI-2 cells; [23]) was 53%. For the same compound, the IC50 (CAKI-2 cells; [24]) was greater than 500 µM.
